According to patent US20070191317A1, “VITAMIN D ANALOG - RAK, METHODS AND USES THEREOF” (WISCONSIN ALUMNI RESEARCH FOUNDATION, priority 2006, published 2007):
Entries after “also recorded” stand apart in the source; their conditions may differ.

Assays:
[1] = molecular target: T1, vitamin D receptors (Homo sapiens, UniProt P11473); conditions: cited from earlier work
T1 sequence (P11473 1-427): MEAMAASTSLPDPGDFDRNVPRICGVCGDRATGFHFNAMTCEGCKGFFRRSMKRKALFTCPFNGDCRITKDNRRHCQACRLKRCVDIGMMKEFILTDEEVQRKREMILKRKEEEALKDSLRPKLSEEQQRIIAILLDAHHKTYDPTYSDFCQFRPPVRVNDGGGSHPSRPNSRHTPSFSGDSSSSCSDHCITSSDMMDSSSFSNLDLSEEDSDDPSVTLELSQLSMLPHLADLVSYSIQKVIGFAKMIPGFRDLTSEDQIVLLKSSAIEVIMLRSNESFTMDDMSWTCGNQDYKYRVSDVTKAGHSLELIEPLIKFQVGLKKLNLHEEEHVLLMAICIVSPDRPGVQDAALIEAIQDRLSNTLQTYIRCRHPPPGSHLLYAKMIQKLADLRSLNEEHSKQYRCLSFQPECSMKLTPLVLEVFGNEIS

[2] = cited from earlier work; for calcemic activity: as compared to 1α,25-dihydroxyvitamin D3
[3] = system: 24-hdyroxylase (24Ohase) gene promoter; assay: In vitro transcription assay (luciferase reporter) in ROS 17/2.8 (bone) cells; assay type: cell-based; conditions: Ros17/2.8 (bone) cells, relative to 1α,25-dihydroxyvitamin D3; FIG. 5
Description: FIG. 5 is a graph comparing the in vitro transcription activity of RAK with that of 1,25(OH)2D3.
Transcription activity was measured in ROS 17/2.8 (bone) cells that were stably transfected with a 24-hdyroxylase (24Ohase) gene promoter upstream of a luciferase reporter gene (Arbour et al., 1998). Cells were given a range of doses. Sixteen hours after dosing the cells were harvested and luciferase activities were measured using a luminometer. (RLU=relative luciferase units)

[4] = system: HL-60 cells; assay: HL-60 differentiation (nitro blue tetrazolium reduction); assay type: cell-based, human; conditions: relative to 1α,25-dihydroxyvitamin D3; FIG. 4
Description: FIG. 4 is a graph comparing the percent HL-60 cell differentiation as a function of the concentration of RAK with that of 1,25(OH)2D3.
The study drugs were dissolved in ethanol and the concentrations determined using UV spectrophotometry. Serial dilutions were prepared so that a range of drug concentrations could be tested without changing the final concentration of ethanol (<0.2%) present in the cell cultures.
Human promyelocytic leukemia (HL60) cells were grown in RPMI-1640 medium containing 10% fetal bovine serum. The cells were incubated at 37° C. in the presence of 5% CO2.
HL60 cells were plated at 1.2×10^5 cells/ml. Eighteen hours after plating, cells in duplicate were treated with drug. Four days later, the cells were harvested and a nitro blue tetrazolium reduction assay was performed (Collins et al., 1979; J. Exp. Med. 149:969-974). The percentage of differentiated cells was determined by counting a total of 200 cells and recording the number that contained intracellular black-blue formazan deposits. Verification of differentiation to monocytic cells was determined by measuring phagocytic activity (data not shown).

[5] = Intestinal calcium transport (everted gut sac method); assay type: in vivo, Sprague-Dawley rats; conditions: rats, ip; at equimolar quantities of the dose of 1α,25-dihydroxyvitamin D3; FIG. 3
Description: FIG. 3 is a bar graph comparing the intestinal calcium transport activity of RAK with that of 1,25(OH)2D3.
(§1) Male, weanling Sprague-Dawley rats were placed on Diet 11 (0.47% Ca) diet+AEK for one week followed by Diet 11 (0.02% Ca)+AEK for 3 weeks. The rats were then switched to a diet containing 0.47% Ca for one week followed by two weeks on a diet containing 0.02% Ca. Dose administration began during the last week on 0.02% calcium diet. Four consecutive ip doses were given approximately 24 hours apart. Twenty-four hours after the last dose, blood was collected from the severed neck and the concentration of serum calcium determined as a measure of bone calcium mobilization. The first 10 cm of the intestine was also collected for intestinal calcium transport analysis using the everted gut sac method.

[6] = molecular target: T2, full-length recombinant rat vitamin D receptor (Rattus norvegicus, UniProt P13053); assay: Vitamin D receptor competitive binding with [3H]-1,25-(OH)2-D3; conditions: relative to 1α,25-dihydroxyvitamin D3; FIG. 1
T2 construct: Full-length recombinant rat receptor was expressed in E. coli; histidine tag (C); made in house; host or cells: E. coli BL21(DE3) Codon Plus RIL
T2 sequence (P13053 1-423): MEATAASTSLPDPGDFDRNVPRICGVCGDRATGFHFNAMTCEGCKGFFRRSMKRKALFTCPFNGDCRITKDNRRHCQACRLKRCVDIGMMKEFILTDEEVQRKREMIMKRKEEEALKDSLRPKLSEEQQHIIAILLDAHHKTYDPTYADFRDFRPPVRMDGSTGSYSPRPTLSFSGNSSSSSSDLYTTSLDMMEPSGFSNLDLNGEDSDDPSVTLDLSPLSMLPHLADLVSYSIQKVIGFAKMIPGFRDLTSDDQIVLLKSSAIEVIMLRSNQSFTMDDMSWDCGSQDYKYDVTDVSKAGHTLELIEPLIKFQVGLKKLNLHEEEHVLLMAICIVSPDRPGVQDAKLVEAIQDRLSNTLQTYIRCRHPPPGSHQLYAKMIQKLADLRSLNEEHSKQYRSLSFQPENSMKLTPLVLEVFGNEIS
Description: The first system was a nickel affinity resin that utilizes the C-terminal histidine tag on this protein. The protein that was eluted from this resin was further purified using ion exchange chromatography (S-Sepharose Fast Flow). Aliquots of the purified protein were quick frozen in liquid nitrogen and stored at −80° C. until use. For use in binding assays, the protein was diluted in TEDK50 (50 mM Tris, 1.5 mM EDTA, pH7.4, 5 mM DTT, 150 mM KCl) with 0.1% Chaps detergent. The receptor protein and ligand concentration was optimized such that no more than 20% of the added radiolabeled ligand was bound to the receptor.
The following day, 100 mcl of hydroxylapatite slurry (50%) was added to each tube and mixed at 10-minute intervals for 30 minutes. The hydroxylapaptite was collected by centrifugation and then washed three times with Tris-EDTA buffer (50 mM Tris, 1.5 mM EDTA, pH 7.4) containing 0.5% Titron X-100. After the final wash, the pellets were transferred to scintillation vials containing 4 ml of Biosafe II scintillation cocktail, mixed and placed in a scintillation counter. Total binding was determined from the tubes containing only radiolabeled ligand.

[7] = Bone calcium mobilization (serum calcium); assay type: in vivo, Sprague-Dawley rats; conditions: rats, ip, FIG. 2
Description: FIG. 2 is a bar graph comparing the bone calcium mobilization activity of RAK with that of 1,25(OH)2D3.
as §1

Question: With “1α-hydroxy-2-methylene-19-nor-(20S)-homopregnacalciferol” as the compound, how does the “binding activity to vitamin D receptors” value [1] read?
Answer: Its value is “relatively high binding activity”.

Question: What about the calcemic activity [2] of the same compound?
Answer: The calcemic activity was “little if any calcemic activity”.

Question: With “1α-hydroxy-2-methylene-19-nor-bishomopregnacalciferol” as the compound, how does the “binding activity to vitamin D receptors” value [1] read?
Answer: The value was “relatively high binding activity”.

Question: And the calcemic activity [2]?
Answer: Its calcemic activity is “little if any calcemic activity”.

Question: For `C[C@H](CCCC(C)(C)O)[C@H]1CC[C@H]2/C(=C/C=C3C[C@@H](O)C[C@H](O)C3)CCC[C@]12C` [1α,25-dihydroxy-19-nor-vitamin D3], which calcium mobilizing activity ([2]; in vivo) is on record?
Answer: The calcium mobilizing activity was “very low”.

Question: What does the source list for `C=C1[C@H](O)CC(=C/C=C2\CCC[C@]3(C)[C@@H](CC)CC[C@@H]23)C[C@H]1O` [1α-hydroxy-2-methylene-19-nor-pregnacalciferol]?
Answer: binding activity to vitamin D receptors [1]: relatively high binding activity; calcemic activity [2]: little if any calcemic activity

Question: Which “stimulating transcription of a reporter gene” value [3] does the source give for `C=C1[C@H](O)CC(=C/C=C2\CCC[C@]3(C)[C@@H]([C@H](C)CCCC(C)O)CC[C@@H]23)C[C@H]1O` (stereo partly drawn) [RAK, (20R,25R)-2-Methylene-19,26-dinor-1α,25-dihydroxyvitamin D3] here?
Answer: The value was “equally active”.

Question: And the “inducing differentiation of HL-60 cells” value [4]?
Answer: The value was “equally active as 1α,25-dihydroxyvitamin D3”.

Question: And the “calcemic activity measured by intestinal calcium transport” value [5]?
Answer: Its value is “limited calcemic activity; also recorded: very low intestinal calcium transport activity”.

Question: And the “binding to the recombinant vitamin D receptor” value [6]?
Answer: Its value is “comparable to 1α,25-dihydroxyvitamin D3; also recorded: relatively high binding”.

Question: And the “calcemic activity measured by bone calcium mobilization” value ([7]; at 27 time molar quantity of the dose of 1α,25-dihydroxyvitamin D3)?
Answer: Its value is “limited calcemic activity”.

Question: And the “calcemic activity measured by bone calcium mobilization” value ([7]; at equimolar quantities of the dose of 1α,25-dihydroxyvitamin D3)?
Answer: The value was “limited calcemic activity; also recorded: very low ability to mobilize calcium from bone”.
